Assays:
[1] = test system: potatoes; conditions: cited from earlier work; for Inhibition of tuber sprouts: in combination with CIPC
[2] = Solubility of CIPC in solvents / terpenes; type: physicochemical; conditions: with terpenes/terpene oils, at ambient temperature and as low as 0° C.
Protocol: Furthermore, CIPC dissolves with difficulty in conventional solvents, and maximum CIPC concentrations of approximately 30% (weight/volume) are generally obtained. At best, concentrations of approximately 54% at […] have been obtained. This low solubility entails the use of large amounts of solvent and/or formulation in order to obtain the required amounts of active ingredient. Nevertheless, efforts are generally made to limit the use of these solvents owing to their inherent toxicity and/or the danger of use that they entail, especially as a result of their low boiling points, which result in high risks of flammability.
It has now been discovered, and this is one of the subjects of the present invention, that terpenes and/or terpene oils, in particular eugenol, isoeugenol or clove oil, have a high capacity to dissolve CIPC, even in cases in which the two agents are applied separately. In particular, the use of terpenes and/or terpene oils of this type, applied before or after the CIPC, allows improved distribution of the CIPC on the potatoes. The separate application of the terpene or terpene oil therefore allows improved application, and accordingly penetration and efficacy, of the CIPC. […]

[3] = in conventional solvents, cited from earlier work

**Q.** Which “Inhibition of tuber sprouts” value [1] does the source give for `CC/C=C\CC1=C(C)CCC1=O` [jasmone] here?
**A.** does not produce positive results

**Q.** Which “Treated batches of potatoes suitable for sale” value ([1]; dosage of 16.6 ppm, agent on its own) does the source give for `C=C(C)C1CC=C(C)C(=O)C1` (stereo not drawn) [carvone] here?
**A.** 0%

**Q.** With `CC(C)OC(=O)Nc1cccc(Cl)c1` [CIPC, 3-chlorophenylisopropylcarbamate] as the compound, how does the CIPC concentration [2] read?
**A.** greater than 50 % by weight of CIPC relative to the total volume of the solution

**Q.** What about the “CIPC concentration, at best” value ([3]; at 180° C.) of the same compound?
**A.** approximately 54%

**Q.** What about the “Maximum CIPC concentration” value [3] of the same compound?
**A.** approximately 30 % (weight/volume)

**Q.** Which “Inhibition of tuber sprouts” value [1] does the source give for `C=C(C)[C@H]1CC=C(C)CC1` [limonene] here?
**A.** does not produce positive results

Source: US8207090B2, “Process for the anti-germination and/or biocide treatment of bulbs or tubers by means of CIPC and a terpene or terpene oil” (Xeda International, priority 2005, dated 2012)
